Read-outs that look alike come from different tables or passages of the source.
Target: T1, galectin-3C (carbohydrate recognition domain of galectin-3) (Homo sapiens, UniProt P17931)
T1 construct: gene LGALS3; carbohydrate recognition domain of galectin-3 (residues 113–250)
Experiment: ITC; X-ray crystal structure; NMR titration
Type: binding

T1 sequence (P17931 113-250): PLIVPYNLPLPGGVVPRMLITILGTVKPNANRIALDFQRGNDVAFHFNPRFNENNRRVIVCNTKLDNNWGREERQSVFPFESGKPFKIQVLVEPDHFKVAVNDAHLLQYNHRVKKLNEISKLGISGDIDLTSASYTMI

| Structure (SMILES) | Kd (read-out: Kd ITC (10^-6 M) ^a) [µM] | Kd [µM] |
| --- | --- | --- |
| OC[C@H]1O[C@@H](S[C@@H]2O[C@H](CO)[C@@H](O)[C@H](O)[C@H]2O)[C@H](O)[C@@H](n2cc(-c3cccc(F)c3)nn2)[C@H]1O [M] | 2 |  |
| OC[C@H]1O[C@@H](S[C@@H]2O[C@H](CO)[C@@H](O)[C@H](O)[C@H]2O)[C@H](O)[C@@H](n2cc(-c3ccccc3F)nn2)[C@H]1O [O] |  | 7.21 |
| OC[C@H]1O[C@@H](S[C@@H]2O[C@H](CO)[C@@H](O)[C@H](O)[C@H]2O)[C@H](O)[C@@H](n2cc(-c3ccc(F)cc3)nn2)[C@H]1O [P] | 2.46 |  |
